Results reported in patent US8202863B2 (Aventis Pharmaceuticals Inc., priority 2005, dated 2012).
pIC50: −log10 of the molar value.

Molecular target: T1, Hematopoietic PGD2 Synthase (Homo sapiens, UniProt O60760)
Experiment: Fluorescence Polarization Assay or EIA assay (which one not stated)
Type: biochemical
Conditions: assay not assigned in b678 (Fluorescence Polarization or EIA)
Procedure: (§1) The compounds of the present invention can be tested for enzymatic inhibiting activity against PGD2 Synthase according to either one of the following assays.
(§2) Assay 1: Fluorescence Polarization Assay
(§3) As described in PCT publication WO 2004/016223, Example II.
Assay 2: Enzyme Immunoassay (EIA) Method
• 2. Dilute 2 μL of each above concentration of compound to 38 μL of reaction buffer in 96-well plates and mix. IV. Enzyme and Substrate Solution Preparation • 1. Preparation of 0.39 ng/μL enzyme solution (0.35 ng/μL at final after compound addition). • Mix 4 μL of 4 mg/mL human h-PGDS with 396 μL of reaction buffer (to give enzyme concentration 40 μg/mL). Add 46.8 μL of 40 μg/mL h-PGDS to 4.753 mL of reaction buffer to give a total volume of 4.8 mL • 2. Preparation of Substrate Solution (PGH2): Add 0.375 mL of 0.1 mg/mL of PGH2 to 1.625 mL acetone. V. Enzyme Reaction: • 1. Add 60 μL of enzyme solution to compound well and positive control (without compound) in U-bottom polypropylene plate on ice. • 2. Add 60 μL of reaction buffer and 6.6 μL of 5% DMSO in reaction buffer into negative control wells in the plate. • 3. Add 6.6 μL of diluted compound in reaction buffer to the compound wells and mix. • 4. Add 6.6 μL of 5% DMSO in reaction buffer to the positive control well. • 5. Incubate the plate in ice for at least 30 min. • 6. Add 20 μL of substrate (PGH2) solution to compound, negative and positive control wells in the U-bottom 96 well plate on ice. • 7. Dry the plate in cold room for about 25-28 min. • 8. Pipette 45 μL of enzyme solution (above) into 96-wells with dried PGH2 and mix 3 times. Incubate on the ice for 1 min. • 9. Add 45 μL of FeCl2 solution into each wells and mix. • 10. Add 90 μL of MOX solution and mix. • 11. Incubate for 30 min at 60° C. • 12. Dilute the samples 2500× with EIA buffer. VI. EIA assay • Perform the assay according to the procedure in EIA kit provided by Cayman. Total PGD2 levels (pg/mL) were determined in the samples by EIA kits (Caymen Chemical, Catalog No. 500151) Calculate amount of PGD2 as below • Calculated % Positive control according to the equation below; % Positive control=(Compound value−Negative control)/(Positive value-Negative control value)×100. % Positive control=(Compound value-Negative control)×100(Positive Value-Negative Control Value) • Compound value=PGD2 levels (pg/mL) obtained from the standard curve in EIA assay for the samples with compound • Negative control value=PGD2 levels (pg/mL) obtained from the standard curve in EIA assay for the samples without enzyme • Positive control value=PGD2 levels (pg/mL) obtained from the standard curve in EIA assay for the samples with enzyme but without compound • IC50s are determined by excel fit to get the x value when y=½Ymax using 4 parameter logistic model for the IC50 curves. Results

T1 sequence (O60760 whole entry): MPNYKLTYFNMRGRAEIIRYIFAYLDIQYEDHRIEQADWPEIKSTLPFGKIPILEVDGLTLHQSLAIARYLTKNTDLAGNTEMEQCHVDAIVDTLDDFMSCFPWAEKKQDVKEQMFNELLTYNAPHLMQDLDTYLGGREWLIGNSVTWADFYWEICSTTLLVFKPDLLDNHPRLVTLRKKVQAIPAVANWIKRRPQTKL

SMILES | pIC50
O=C(Nc1cc[nH]c(=O)n1)c1cnc(-c2ccccc2)nc1 [Example 29, 2-Phenyl-pyrimidine-5-carboxylic acid (2-oxo-1,2-dihydro-pyrimidin-4-yl)-amide] | 7.82
O=C(Nc1ccc2nc(CCN3CCCC3)oc2c1)c1cnc(-c2ccccc2)nc1 [Example 11, 2-Phenyl-pyrimidine-5-carboxylic acid [2-(2-pyrrolidin-1-yl-ethyl)-benzooxazol-6-yl]-amide] | 7.74
CCOP(=O)(OCC)C(NC(=O)c1cnc(-c2ccccc2)nc1)c1ccccc1 (stereo not drawn) [Example 101, {Phenyl-[(2-phenyl-pyrimidine-5-carbonyl)-amino]-methyl)-phosphonic acid diethyl ester] | 7.32
CCOP(=O)(Cc1ccc(NC(=O)c2cnc(-c3ccccc3)nc2)cc1)OCC [Example 98] | 7.42
O=C(NCc1cccc(S(=O)(=O)NCCc2c[nH]cn2)c1)c1cnc(-c2cccc(F)c2)nc1 [Example 60, 2-(3-Fluoro-phenyl)-pyrimidine-5-carboxylic acid 3-[2-(1H-imidazol-4-yl)-ethylsulfamoyl]-benzylamide] | 7.21
CCOP(=O)(CCCCNC(=O)c1cnc(-c2ccccc2)nc1)OCC [Example 99, {4-[(2-Phenyl-pyrimidine-5-carbonyl)-amino]-butyl)-phosphonic acid diethyl ester] | 7.63

Further lines, results first:

pIC50 | SMILES
8.15 | O=C(NCc1ccc2occc2c1)c1cnc(-c2ccccc2)nc1 [Example 90, 2-Pheny-pyrimidine-5-carboxylic acid (benzofuran-5-ylmethyl)-amide]
7.80 | NC(=O)c1ccc(CNC(=O)c2cnc(-c3ccccc3)nc2)cc1 [Example 92, 2-Pheny-pyrimidine-5-carboxylic acid 4-carbamoyl-benzylamide]
7.92 | O=C(NCc1ccc(N2CCOCC2)cc1)c1cnc(-c2ccccc2)nc1 [Example 87, 2-Pheny-pyrimidine-5-carboxylic acid 4-morpholin-4-ylbenzylamide]
6.29 | Cc1nc(-c2ncc(C(=O)NC3CCOCC3)cn2)no1 [Example 77, 2-(5-Methyl-[1,2,4]oxadiazole-3-yl)-pyrimidine-5-carboxylic acid (tetrahydro-pyran-4-yl)-amide]

Tested on: guinea pig
Experiment: not given
Conditions: guinea pig model; cited from earlier work

SMILES | antiasthmatic effect
c1ccc(C(OC2CCN(CCCc3nn[nH]n3)CC2)c2ccccc2)cc1 [HQL-79] | antiasthmatic

Molecular target: T1, Hematopoietic PGD2 Synthase
Experiment: Fluorescence Polarization Assay (Assay 1)
Type: binding
Conditions: assigned
Description: as §1, §2, §3

SMILES | pIC50
O=C(Nc1ccc2c(c1)CS(=O)(=O)N2)c1cnc(-c2ccccc2)nc1 [Example 8, 2-Phenyl-pyrimidine-5-carboxylic acid (2,2-dioxo-2,3-dihydro-1H-2lamda*6*-benzo[c]isothiazol-5-yl)-amide] | 8.60
O=C(NC1CCN(Cc2ncc[nH]2)CC1)c1cnc(-c2ccccc2)nc1 [Example 9] | 8.70
O=C(NCCc1c[nH]cn1)c1cnc(-c2ccccc2)nc1 [Example 34, 2-Phenyl-pyrimidine-5-carboxylic acid [2-(1H-imidazol-4-yl)-ethyl]-amide] | 7.46
O=C(NCCN1CCNC1=O)c1cnc(-c2ccccc2)nc1 [Example 33, 2-Phenyl-pyrimidine-5-carboxylic acid [2-(2-oxo-imidazolidin-1-yl)-ethyl]-amide] | 7.49

The remaining lines, values ahead:

pIC50 | SMILES
8.19 | O=C(NCc1ccc(-c2cnns2)cc1)c1cnc(-c2ccccc2)nc1 [Example 84]
8.70 | O=C(NCCc1ccc2c(c1)OCO2)c1cnc(-c2ccccc2)nc1 [Example 82, 2-Phenyl-pyrimidine-5-carboxylic acid (2-benzo[133]dioxol-5-yl-ethyl)-amide]
5.30 | O=C(Nc1ccccc1)c1cnc(C2CCCCC2)nc1 [Example 114, 2-Cyclohexyl-pyrimidine-5-carboxylic acid phenylamide]
7.64 | O=C(Nc1ccc2[nH]ncc2c1)c1cnc(-c2ccccc2)nc1 [Example 83, 2-Pheny-pyrimidine-5-carboxylic acid (1H-indazol-5-yl)-amide]

Tested on: rat
Experiment: not given
Conditions: rat model; cited from earlier work

SMILES | antiasthmatic effect
c1ccc(C(OC2CCN(CCCc3nn[nH]n3)CC2)c2ccccc2)cc1 [HQL-79] | antiasthmatic

Tested on: PGDS
Experiment: not given
Conditions: literature report; cited from earlier work

SMILES | PGDS inhibition
c1ccc(C(OC2CCN(CCCc3nn[nH]n3)CC2)c2ccccc2)cc1 [HQL-79] | weak PGDS inhibitor
